Like-named read-outs stand apart in the source and are kept apart here.
Key:
Assay in all cases: Kinase selectivity, P33-radiolabeled assay
Format in all cases: biochemical
Conditions in all cases: 10 μM ATP
ZIPK/DAPK3 = target: T1, ZIPK/DAPK3 (Homo sapiens, UniProt O43293)
T1 construct: purchased Reaction Biology Corp
Method: (§1) The compound was tested at a single dose in duplicate at 10 μM. Reactions were carried out at 10 μM ATP. Data are reported as % enzyme activity (relative to DMSO controls). The full data set is shown in the Supplementary Table I.

AXL = target: T2, AXL (Homo sapiens, UniProt P30530)
T2 construct: purchased Reaction Biology Corp
T2 sequence (P30530 26-894): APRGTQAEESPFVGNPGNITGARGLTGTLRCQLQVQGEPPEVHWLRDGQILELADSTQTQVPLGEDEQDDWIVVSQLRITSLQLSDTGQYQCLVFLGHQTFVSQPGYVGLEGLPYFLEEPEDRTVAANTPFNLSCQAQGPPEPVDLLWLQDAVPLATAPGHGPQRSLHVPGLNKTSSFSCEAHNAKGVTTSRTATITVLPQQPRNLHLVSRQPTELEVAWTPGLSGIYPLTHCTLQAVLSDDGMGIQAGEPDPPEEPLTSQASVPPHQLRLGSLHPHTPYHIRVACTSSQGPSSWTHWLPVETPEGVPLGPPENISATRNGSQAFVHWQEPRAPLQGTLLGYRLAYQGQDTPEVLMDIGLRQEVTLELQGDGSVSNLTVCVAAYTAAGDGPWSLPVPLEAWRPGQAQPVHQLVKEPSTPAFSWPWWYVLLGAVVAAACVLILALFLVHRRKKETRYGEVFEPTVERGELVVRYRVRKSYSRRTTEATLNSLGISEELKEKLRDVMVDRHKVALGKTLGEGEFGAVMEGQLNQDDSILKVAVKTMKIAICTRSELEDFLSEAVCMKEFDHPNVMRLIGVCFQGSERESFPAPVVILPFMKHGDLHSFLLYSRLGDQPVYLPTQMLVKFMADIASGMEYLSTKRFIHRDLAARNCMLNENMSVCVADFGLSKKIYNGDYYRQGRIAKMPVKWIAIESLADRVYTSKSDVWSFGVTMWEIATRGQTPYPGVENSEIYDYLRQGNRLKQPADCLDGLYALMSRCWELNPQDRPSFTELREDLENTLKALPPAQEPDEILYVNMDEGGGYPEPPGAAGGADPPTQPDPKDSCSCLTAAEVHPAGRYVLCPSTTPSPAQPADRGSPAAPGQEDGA
Method: as §1

TAK1 = target: T3, TAK1 (Homo sapiens, UniProt O43318)
T3 construct: purchased Reaction Biology Corp
T3 sequence (O43318 1-303 limits assumed): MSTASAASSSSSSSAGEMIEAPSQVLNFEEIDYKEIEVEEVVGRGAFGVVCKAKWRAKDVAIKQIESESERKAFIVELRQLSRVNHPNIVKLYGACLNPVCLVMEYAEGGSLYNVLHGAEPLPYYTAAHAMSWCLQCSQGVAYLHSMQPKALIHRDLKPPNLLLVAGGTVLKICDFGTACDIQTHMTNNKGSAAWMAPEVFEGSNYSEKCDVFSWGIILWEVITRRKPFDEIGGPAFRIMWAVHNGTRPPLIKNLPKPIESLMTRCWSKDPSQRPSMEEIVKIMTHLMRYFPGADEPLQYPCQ
T3 sequence (Q15750 437-504 partner limits assumed): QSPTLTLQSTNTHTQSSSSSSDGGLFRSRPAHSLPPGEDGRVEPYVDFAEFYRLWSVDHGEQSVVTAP
Method: as §1

ALK6/BMPR1B = target: T4, ALK6/BMPR1B (Homo sapiens, UniProt O00238)
T4 construct: purchased Reaction Biology Corp
T4 sequence (O00238 14-502): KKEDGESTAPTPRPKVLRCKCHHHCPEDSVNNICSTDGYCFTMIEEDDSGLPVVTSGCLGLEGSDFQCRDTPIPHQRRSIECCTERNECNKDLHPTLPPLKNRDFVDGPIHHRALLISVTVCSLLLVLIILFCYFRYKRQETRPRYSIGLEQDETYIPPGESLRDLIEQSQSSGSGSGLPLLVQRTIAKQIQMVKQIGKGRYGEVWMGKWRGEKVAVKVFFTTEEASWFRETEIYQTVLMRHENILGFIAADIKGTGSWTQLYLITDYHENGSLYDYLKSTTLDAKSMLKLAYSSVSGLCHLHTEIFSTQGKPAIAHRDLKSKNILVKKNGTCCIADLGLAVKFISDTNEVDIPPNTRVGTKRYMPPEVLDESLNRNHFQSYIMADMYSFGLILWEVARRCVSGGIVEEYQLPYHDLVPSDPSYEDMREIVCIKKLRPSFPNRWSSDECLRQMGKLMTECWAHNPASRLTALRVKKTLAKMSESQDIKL
Method: as §1

PDGFRa = target: T5, PDGFRa (Homo sapiens, UniProt P16234)
T5 construct: purchased Reaction Biology Corp
T5 sequence (P16234 24-1089): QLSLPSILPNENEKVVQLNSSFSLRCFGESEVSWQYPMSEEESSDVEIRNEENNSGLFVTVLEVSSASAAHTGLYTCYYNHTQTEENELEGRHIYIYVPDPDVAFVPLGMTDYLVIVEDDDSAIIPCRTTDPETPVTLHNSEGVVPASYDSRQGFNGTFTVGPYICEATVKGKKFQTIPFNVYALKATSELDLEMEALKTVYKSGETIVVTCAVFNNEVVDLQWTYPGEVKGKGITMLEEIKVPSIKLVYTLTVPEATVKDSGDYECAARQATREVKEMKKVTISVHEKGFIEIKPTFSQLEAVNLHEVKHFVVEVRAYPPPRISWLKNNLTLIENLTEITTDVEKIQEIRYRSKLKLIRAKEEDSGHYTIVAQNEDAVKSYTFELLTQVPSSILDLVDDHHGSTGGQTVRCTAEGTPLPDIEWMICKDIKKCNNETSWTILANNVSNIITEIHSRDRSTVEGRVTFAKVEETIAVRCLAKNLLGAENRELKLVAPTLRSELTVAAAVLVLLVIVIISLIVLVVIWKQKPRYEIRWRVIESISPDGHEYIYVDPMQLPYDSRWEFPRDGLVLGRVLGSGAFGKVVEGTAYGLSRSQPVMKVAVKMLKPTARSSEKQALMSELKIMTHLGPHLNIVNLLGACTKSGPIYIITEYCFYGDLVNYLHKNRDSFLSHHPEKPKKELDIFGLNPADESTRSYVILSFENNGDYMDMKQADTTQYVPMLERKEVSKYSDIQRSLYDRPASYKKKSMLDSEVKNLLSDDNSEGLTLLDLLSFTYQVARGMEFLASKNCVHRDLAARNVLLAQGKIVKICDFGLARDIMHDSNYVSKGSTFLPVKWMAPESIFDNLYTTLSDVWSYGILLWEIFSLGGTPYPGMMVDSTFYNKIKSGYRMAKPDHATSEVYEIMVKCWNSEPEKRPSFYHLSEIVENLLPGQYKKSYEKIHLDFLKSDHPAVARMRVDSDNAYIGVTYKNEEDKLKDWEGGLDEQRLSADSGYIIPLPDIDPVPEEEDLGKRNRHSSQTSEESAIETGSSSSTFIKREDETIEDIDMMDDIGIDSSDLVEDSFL
Method: as §1

TRKC = target: T6, TRKC (Homo sapiens, UniProt Q16288)
T6 construct: purchased Reaction Biology Corp
T6 sequence (Q16288 32-839): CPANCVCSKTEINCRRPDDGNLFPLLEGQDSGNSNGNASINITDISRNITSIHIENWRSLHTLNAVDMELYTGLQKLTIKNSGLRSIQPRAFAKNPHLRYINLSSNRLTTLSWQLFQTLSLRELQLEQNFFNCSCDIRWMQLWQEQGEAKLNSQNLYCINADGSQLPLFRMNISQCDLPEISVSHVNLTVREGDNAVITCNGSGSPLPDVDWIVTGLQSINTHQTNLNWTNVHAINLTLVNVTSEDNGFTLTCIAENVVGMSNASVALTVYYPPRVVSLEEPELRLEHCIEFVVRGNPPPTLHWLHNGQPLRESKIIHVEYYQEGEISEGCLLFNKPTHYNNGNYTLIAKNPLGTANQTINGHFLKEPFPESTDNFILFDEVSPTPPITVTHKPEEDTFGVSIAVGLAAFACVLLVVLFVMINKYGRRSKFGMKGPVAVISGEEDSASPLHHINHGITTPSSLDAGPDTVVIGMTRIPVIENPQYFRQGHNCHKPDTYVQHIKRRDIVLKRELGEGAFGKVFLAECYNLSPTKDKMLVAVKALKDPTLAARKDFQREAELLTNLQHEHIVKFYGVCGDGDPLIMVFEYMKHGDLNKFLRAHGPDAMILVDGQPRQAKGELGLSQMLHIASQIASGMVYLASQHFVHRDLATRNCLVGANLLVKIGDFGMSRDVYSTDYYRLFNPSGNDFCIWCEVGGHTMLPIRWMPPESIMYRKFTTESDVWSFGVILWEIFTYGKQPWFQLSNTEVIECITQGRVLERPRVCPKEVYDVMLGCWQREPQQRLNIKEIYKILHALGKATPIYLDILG
Method: as §1

CK1epsilon = target: T7, CK1epsilon (Homo sapiens, UniProt P49674)
T7 construct: purchased Reaction Biology Corp
T7 sequence (P49674 whole entry): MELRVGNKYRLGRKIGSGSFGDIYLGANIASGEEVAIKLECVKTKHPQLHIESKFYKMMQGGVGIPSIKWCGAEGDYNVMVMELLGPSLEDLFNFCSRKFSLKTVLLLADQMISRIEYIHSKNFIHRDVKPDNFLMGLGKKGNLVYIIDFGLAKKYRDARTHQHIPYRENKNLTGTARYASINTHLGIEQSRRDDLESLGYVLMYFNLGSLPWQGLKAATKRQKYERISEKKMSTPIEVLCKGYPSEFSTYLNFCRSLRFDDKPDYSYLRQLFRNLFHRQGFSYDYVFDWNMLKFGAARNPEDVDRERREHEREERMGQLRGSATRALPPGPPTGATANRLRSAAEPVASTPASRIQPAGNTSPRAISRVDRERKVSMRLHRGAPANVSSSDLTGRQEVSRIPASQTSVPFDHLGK
Method: as §1

CTK/MATK = target: T8, CTK/MATK (Homo sapiens, UniProt P42679)
T8 construct: purchased Reaction Biology Corp
T8 sequence (P42679 1-507): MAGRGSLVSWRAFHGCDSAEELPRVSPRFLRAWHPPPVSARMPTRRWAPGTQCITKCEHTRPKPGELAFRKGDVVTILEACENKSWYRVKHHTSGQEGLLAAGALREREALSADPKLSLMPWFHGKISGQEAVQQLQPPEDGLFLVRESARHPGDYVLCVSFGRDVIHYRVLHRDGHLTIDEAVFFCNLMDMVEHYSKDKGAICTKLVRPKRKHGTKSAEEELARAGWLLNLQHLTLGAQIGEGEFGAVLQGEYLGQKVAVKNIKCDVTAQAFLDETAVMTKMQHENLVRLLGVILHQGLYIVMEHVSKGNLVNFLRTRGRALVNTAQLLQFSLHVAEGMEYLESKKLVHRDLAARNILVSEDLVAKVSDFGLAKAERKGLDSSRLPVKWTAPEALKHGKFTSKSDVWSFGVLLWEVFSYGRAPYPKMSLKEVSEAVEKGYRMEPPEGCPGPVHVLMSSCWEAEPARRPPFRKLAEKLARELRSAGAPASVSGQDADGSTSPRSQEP
Method: as §1

PKCeta = target: T9, PKCeta (Homo sapiens, UniProt P24723)
T9 construct: purchased Reaction Biology Corp
T9 sequence (P24723 whole entry): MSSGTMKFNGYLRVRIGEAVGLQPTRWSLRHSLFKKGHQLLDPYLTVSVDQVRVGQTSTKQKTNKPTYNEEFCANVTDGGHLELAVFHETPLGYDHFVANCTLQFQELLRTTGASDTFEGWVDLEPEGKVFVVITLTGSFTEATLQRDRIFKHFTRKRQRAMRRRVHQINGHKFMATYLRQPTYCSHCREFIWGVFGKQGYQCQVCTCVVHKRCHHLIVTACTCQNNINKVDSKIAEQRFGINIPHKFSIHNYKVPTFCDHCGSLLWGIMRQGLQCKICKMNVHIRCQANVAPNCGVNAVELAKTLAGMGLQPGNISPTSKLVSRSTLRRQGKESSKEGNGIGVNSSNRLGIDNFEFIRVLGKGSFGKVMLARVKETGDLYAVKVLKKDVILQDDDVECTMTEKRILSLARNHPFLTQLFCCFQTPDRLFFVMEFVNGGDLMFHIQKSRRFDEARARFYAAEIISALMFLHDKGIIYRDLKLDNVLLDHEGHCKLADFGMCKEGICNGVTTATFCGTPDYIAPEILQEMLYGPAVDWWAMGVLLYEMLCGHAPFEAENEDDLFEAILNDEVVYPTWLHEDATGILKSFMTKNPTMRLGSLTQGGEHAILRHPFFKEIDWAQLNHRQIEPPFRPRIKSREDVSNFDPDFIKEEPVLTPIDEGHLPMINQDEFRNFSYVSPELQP
Method: as §1

[1] = read-out: % Enzyme Activity (relative to DMSO controls) AVG
[2] = read-out: % Enzyme Activity (relative to DMSO controls) Data 1
[3] = read-out: % Enzyme Activity (relative to DMSO controls) Data 2

T1 sequence (O43293 whole entry): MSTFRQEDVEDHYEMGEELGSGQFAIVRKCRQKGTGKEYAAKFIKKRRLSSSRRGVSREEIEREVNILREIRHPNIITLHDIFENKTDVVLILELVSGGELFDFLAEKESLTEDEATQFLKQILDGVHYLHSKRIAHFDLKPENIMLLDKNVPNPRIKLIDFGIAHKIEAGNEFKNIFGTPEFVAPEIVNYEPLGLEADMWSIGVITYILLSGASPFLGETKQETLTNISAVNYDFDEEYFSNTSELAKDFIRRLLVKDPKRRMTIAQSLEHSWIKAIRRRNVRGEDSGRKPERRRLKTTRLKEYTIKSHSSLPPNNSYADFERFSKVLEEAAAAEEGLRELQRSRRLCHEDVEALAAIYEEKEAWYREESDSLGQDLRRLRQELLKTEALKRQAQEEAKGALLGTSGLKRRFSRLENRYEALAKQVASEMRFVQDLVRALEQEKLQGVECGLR

CC(C)(C)C(=O)N1N=CC[C@H]1c1ccccc1 [GSK′963] gave a remaining activity at 10 µM (ZIPK/DAPK3; [1]) of 111%, a remaining activity at 10 µM (ZIPK/DAPK3; [2]) of 118% and a remaining activity at 10 µM (ZIPK/DAPK3; [3]) of 104%. It also gave a remaining activity at 10 µM (AXL; [1]) of 92.9%, a remaining activity at 10 µM (AXL; [2]) of 91.2% and a remaining activity at 10 µM (AXL; [3]) of 94.6%. The remaining activity at 10 µM (TAK1; [1]) was 98.8%, the remaining activity at 10 µM (TAK1; [2]) was 99.7% and the remaining activity at 10 µM (TAK1; [3]) was 97.9%. It also gave a remaining activity at 10 µM (ALK6/BMPR1B; [1]) of 90.5%, a remaining activity at 10 µM (ALK6/BMPR1B; [2]) of 91% and a remaining activity at 10 µM (ALK6/BMPR1B; [3]) of 90%. For the same compound, the remaining activity at 10 µM (PDGFRa; [1]) was 104%, the remaining activity at 10 µM (PDGFRa; [2]) was 101% and the remaining activity at 10 µM (PDGFRa; [3]) was 106%. The remaining activity at 10 µM (TRKC; [1]) was 99.2%, the remaining activity at 10 µM (TRKC; [2]) was 100% and the remaining activity at 10 µM (TRKC; [3]) was 98%. The remaining activity at 10 µM (CK1epsilon; [1]) was 93.4%, the remaining activity at 10 µM (CK1epsilon; [2]) was 96.7% and the remaining activity at 10 µM (CK1epsilon; [3]) was 90.2%. It also gave a remaining activity at 10 µM (CTK/MATK; [1]) of 93%, a remaining activity at 10 µM (CTK/MATK; [2]) of 91.5% and a remaining activity at 10 µM (CTK/MATK; [3]) of 94.5%. The remaining activity at 10 µM (PKCeta; [1]) was 113%, the remaining activity at 10 µM (PKCeta; [2]) was 112% and the remaining activity at 10 µM (PKCeta; [3]) was 114%.

Source: paper PMC4979471 (Cell Death Discovery, 2015)
